Results on 1 compound are retold here after patent US20250000834A1, “COMPOSITIONS AND METHODS FOR TARGETING GPCR FOR THE PREVENTION AND TREATMENT OF PAIN” (Duke University, priority 2021, published 2025).

One test concerns the target T1, hGPR37L1 (Homo sapiens, UniProt O60883).
T1 sequence (O60883 26-481): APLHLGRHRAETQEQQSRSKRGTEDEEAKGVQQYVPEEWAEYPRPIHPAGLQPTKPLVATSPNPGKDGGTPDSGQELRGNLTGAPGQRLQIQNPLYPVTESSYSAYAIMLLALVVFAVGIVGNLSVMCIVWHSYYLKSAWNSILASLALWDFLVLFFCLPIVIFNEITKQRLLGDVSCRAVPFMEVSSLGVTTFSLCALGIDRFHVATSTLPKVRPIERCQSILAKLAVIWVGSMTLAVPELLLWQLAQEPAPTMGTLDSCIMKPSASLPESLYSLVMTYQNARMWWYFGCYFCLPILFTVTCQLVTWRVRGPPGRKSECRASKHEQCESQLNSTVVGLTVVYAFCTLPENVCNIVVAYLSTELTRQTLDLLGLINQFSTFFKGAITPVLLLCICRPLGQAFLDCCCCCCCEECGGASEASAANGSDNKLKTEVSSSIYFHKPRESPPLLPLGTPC
In words: Lipid-coated bead pull-down assay with hGPR37L1-expressing cells. The test is classed as binding. Further details: expressed in transfected cells; host or cells: HEK293 Flp-In cells. The note with it: Western blot. On the procedure: Lipid pull-down assay: Isolated membrane proteins were pre-adsorbed to uncoated control agarose beads (Vector Laboratories, Burlingame, CA); the unbound fraction was collected and incubated 24 hrs at 4° C. with lipid-coated agarose beads (S. Bang et al., GPR37 regulates macrophage phagocytosis and resolution of inflammatory pain. J Clin Invest 128, 3568-3582 (2018)). After extensive washing, bound proteins were eluted from the lipid-coated beads, suspended in Laemmli buffer containing 2% SDS (w/v) and 0.3-M β-mercaptoethanol (Sigma-Aldrich, St. Louis, MO), and heated 5 min at 95° C. to dissolve proteins before separation on 4-20% polyacrylamide/SDS gels as outlined above. The lysate proteins were detected by western blot.
Western blot: GPR37L1 proteins were isolated from transfected cells, lipid pull-down beads, and mouse DRG. The cells were placed on ice, washed with ice-cold phosphate-buffered saline (PBS), and harvested with ice-cold RIPA buffer (Sigma-Aldrich, St. Louis, MO) with Protease Inhibitor Cocktail Tablet (pH 7.4) (Roche Diagnostics, Indianapolis, IN). The cell lysates were centrifugated for removing insoluble debris and were calculated by BCA assay for detection of protein level, and the supernatant was mixed with 4× Laemmli buffer (Bio-Rad, Hercules, CA) and boiling. Protein samples were […] on 4-15% gradient SDS-PAGE gel (Bio-Rad, Hercules, CA) and blotted on PVDF membrane (Bio-Rad, Hercules, CA). Ponceau S staining was used for the detection of total proteins. The primary antibody was incubated with PBS+1% BSA at 4° C. overnight. We used the following primary antibodies: anti-GPR37L1 antibody (Bioss (Woburn, MA), Rabbit, 1:1000, #bs-15390R); anti-GAPDH antibody (Proteintech (Rosemont, IL), mouse, 1:2000, #60004); and anti-flag antibody (Cell Signaling Technologies (Danvers, MA), Rabbit, 1:1000, #14793). Blots were further incubated with an […] secondary anti-rabbit antibody (Jackson ImmunoResearch Laboratories (West Grove, PA), donkey, 1:5000), developed in ECL solution (Pierce Biotechnology, Appleton, WI)), and visualized in ChemiDoc XRS (Bio-Rad, Hercules, CA). Protein signal intensity was quantified by Image J software (NIH).
Next, a lipid-coated bead pull-down assay with hGPR37L1-expressing cells was used to confirm whether MaR1 would interact with GPR37L1 protein selectively. […] The right molecule size of GPR37L1 (˜50 kDa) was also validated by the anti-FLAG antibody (data not shown; see U.S. Prov. No. 63/270,198, FIG. 3E).
For orientation: Immunoblotting shows a protein as a band on a membrane.

Test [1] has as its system Kir4.1 potassium channels in SGCs. In words: Patch-clamp recordings of K+ currents in SGCs of whole-mount DRG. It is filed as cell-based, mouse. On the procedure: Patch-clamp recordings in SGCs of whole-mount DRG: Under urethane anesthesia, mice were rapidly euthanized, followed by careful isolation of lumbar DRGs placed in the oxygenated artificial cerebral spinal fluid (aCSF). DRGs were briefly digested (20 min) using an enzymatic mixture consisting of collagenase A (1 mg/mL) and 0.32 mL Trypsin (0.25% original solution). Intact DRG were then incubated in aCSF oxygenated with 95% O2 and 5% CO2 at 34° C. Following incubation, DRG were transferred to a recording chamber. Isolated DRGs were transferred to a recording chamber continuously perfused (˜3 ml/min) with aCSF. SGCs in whole mouse DRGs could be visualized using a 40× water-immersion objective on an Olympus BX51WI microscope (Olympus Corp., Shinjuku, Japan). The round or fusiform-shaped cell bodies of SGCs were small (<10 μm) but visible near the edges of DRG neurons. Patch pipettes (Chase Scientific Glass Inc., Ramsey, MN) were pulled and filled with a pipette solution containing: 126 mM potassium gluconate, 10 mM NaCl, 1 mM MgCl2, 10 mM EGTA, 2 mM Na-ATP, and 0.1 mM Mg-GTP, adjusted to pH 7.3 with KOH. The resistance of pipettes was 10-12 MΩ. A Whole-cell patch-clamp configuration was made on SGCs at room temperature using a Multiclamp 700B amplifier (Axon Instruments, Union City, CA). Under voltage clamp, at a holding potential of −80 mV, inward or outward currents are triggered by voltage steps of −160 to +40 mV, with 20 mV increment in 200 ms (H. Zhang et al., Altered functional properties of satellite glial cells in compressed spinal ganglia. Glia 57, 1588-1599 (2009)). To isolate inwardly rectifying potassium current (Kir), potassium currents from the same cells were recorded in the absence and presence of 100 μM extracellular barium, which blocks the Kir4.1 channel (C. A. Doupnik, et al, The inward rectifier potassium channel family. Curr Opin Neurobiol 5, 268-277 (1995); X. Tong et al., Astrocyte Kir4.1 ion channel deficits contribute to neuronal dysfunction in Huntington's disease model mice. Nat Neurosci 17, 694-703 (2014)). The Kir4.1 currents were obtained by digitally subtracting those currents in the absence and presence of barium.
Kir4.1 potassium channels are the predominant potassium channels in SGCs and are chiefly responsible for the potassium currents in SGCs. Dysregulation of SGC Kir4.1 contributes to the pathogenesis of pain (M. Hanani, D. C. Spray, Emerging importance of satellite glia in nervous system function and dysfunction. Nat Rev Neurosci 21, 485-498 (2020)). SGC K^+ currents were recorded by conducting patch-clamp recordings in SGCs in whole-mount DRG preparation (data not shown; see U.S. Prov. No. 63/270,198, FIG. 7A), collected from WT mice, Gpr37l1^+/+ mice, and Gpr37l1^+/− mutant mice (FIG. 11A parts A-C).

For `CC/C=C\C/C=C\C[C@H](O)\C=C/C=C/C=C/[C@H](O)C/C=C\CCC(=O)O` [MaR1, Maresin 1], the “GPR37L1 binding in lipid-coated bead pull-down extracts” value at hGPR37L1 was “Strong GPR37L1 binding”. Also, the “effect on PTX-induced downregulation of K+ currents in SGCs” value in test [1] (100 ng/ml co-applied with PTX, Gpr37l1+/+ DRG) is “significantly rescued”. Moreover, the “effect on K+ currents in SGCs” value in test [1] (100 ng/ml with PTX, Gpr37l1 mutant (Gpr37l1+/−) DRG) was “completely abolished”.
